Here are results for one molecule from patent publication US7635702B2, “Imidazole compounds as transforming growth factor (TGF) inhibitors” (Pfizer Inc., priority 2002, dated 2009).

This test addresses T1, ALK-5 (TβRI) (Homo sapiens, UniProt P36897).
T1 construct: using either the kinase domain of ALK5 with Smad3 as substrate; GST
T1 sequence (P36897 205-495 limits assumed): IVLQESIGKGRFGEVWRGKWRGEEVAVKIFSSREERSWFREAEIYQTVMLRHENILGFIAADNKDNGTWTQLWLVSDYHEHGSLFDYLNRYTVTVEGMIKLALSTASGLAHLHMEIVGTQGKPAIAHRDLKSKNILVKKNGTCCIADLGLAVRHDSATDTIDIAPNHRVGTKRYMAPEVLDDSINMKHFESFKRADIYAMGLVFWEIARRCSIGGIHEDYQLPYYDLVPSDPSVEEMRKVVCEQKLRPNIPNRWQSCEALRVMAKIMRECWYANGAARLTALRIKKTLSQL
Put plainly: ALK-5 (TβRI) kinase assay. Format: biochemical. Particulars: GST-ALK5 with GST-Smad3 substrate, 33P-ATP. As for the experimental part:
The kinase assays were performed with 65 nM GST-ALK5 and 84 nM GST-Smad3 in 50 mM HEPES, 5 mM MgCl2, 1 mM CaCl2, 1 mM dithiothreitol, and 3_M ATP. Reactions were incubated with 0.5_Ci of [33 P]_ATP for 3 h at 30° C. Phosphorylated protein was captured on P-81 paper (Whatman, Maidstone, England), washed with 0.5% phosphoric acid, and counted by liquid scintillation. Alternatively, Smad3 or Smad1 protein was also coated onto FlashPlate Sterile Basic Microplates (PerkinElmer Life Sciences, Boston, Mass.). Kinase assays were then performed in Flash-Plates with same assay conditions using either the kinase domain of ALK5 with Smad3 as substrate or the kinase domain of ALK6 (BMP receptor) with Smad1 as substrate. Plates were washed three times with phosphate buffer and counted by TopCount (Packard Bio-science, Meriden, Conn.). (Laping, N.J. et al. Molecular Pharmacology 62:58-64 (2002)).

For the molecule `Cc1cccc(-c2[nH]cnc2-c2ccc3nnn(C)c3c2)n1` [Example 12, 1-Methyl-6-[5-(6-methyl-pyridin-2-yl)-1H-imidazol-4-yl]-1H-benzotriazole], the IC50 (commonly the concentration needed to halve the response being measured) was ~44.5 nM.
